These results are taken from US20240124483A1, “Methods for the Treatment of Fibrotic Disease” (SHY Therapeutics, LLC, priority 2021, published 2024).

Like-named read-outs stand apart in the source and are kept apart here.

One assay has as its system JNK. Kind of assay: JNK Activation Assay in Panc-1 (western blot). Details: key: Y = yes; N = No. The conditions noted are these: at 10 μM. Type of assay: cell-based, Human. The protocol: Cell lines: Human tumor-derived pancreatic cancer cell line Panc-1 and mouse muscle myoblast C2C12 were purchased from American Type Culture Collection and grown in complete DMEM-High Glucose, supplemented with penicillin (100 U/mL), streptomycin (100 μg/mL), and 10% heat-inactivated FBS at 37° C. in a humidified incubator with 5% CO2.
Method: Cells were plated at 350000 cells/well density in a 12-well plate, allowed 3 hours to adhere to the plate, then starved in the appropriate medium in the presence of 0.5% FBS overnight. The small molecules to be tested were added to the cells in the final concentration of 10 μM in the presence of 0.3% DMSO for 3 hours incubation at 37° C. For IC50 value determination, serial dilutions of compounds were added to cells under the same conditions. Next, Panc-1 cells were stimulated with 10 ng/ml TGF-b1 for 1 hour, and C2C12 cells were stimulated with 10 ng/ml TGF-b1 for 20 minutes (recombinant human TGF-b1, R&D Systems). After stimulation cells were lysed with lysis buffer containing 1% Triton X-100, EDTA, and Halt™ Protease & Phosphatase Inhibitor Cocktail (Thermo Scientific). Protein concentration was assessed by BCA protein assay (Thermo Scientific). Phosphorylation level of JNK was determined by western blot.
Western blot protocol: Equal amounts of protein (15-50 μg) were separated by SDS-PAGE and transferred to nitrocellulose membranes (Invitrogen by Thermo Fisher Scientific). The membrane was stained with Ponceau S Stain (Boston BioProducts) to verify uniform protein loading. Membranes were blocked with 10% milk and phosphorylation levels of Smad2, Smad3, INK and p38 were assessed by incubating overnight at 4° C. with the following antibody: Phospho-SAPK/JNK (Thr183/Tyr185), from Cell Signaling Technology. Then the membranes were incubated with HRP-conjugated secondary antibody (Jackson Immunoresearch, West Grove, PA). Bands were incubated in Amersham ECL Prime Western Blotting Detection Reagent (GE Healthcare) and visualized using the ChemiDoc MP imaging system (Bio-Rad).

The target in the next assay is KRas wild type (Homo sapiens (Human), UniProt P01116). Kind of assay: Ras GTP Binding Domain Inhibition Assay, KRas wild type. The protocol: (§1) A Ras Superfamily Activity Assay (as disclosed in International Application No. PCT/US2018/038613, filed Jun. 20, 2018, which is incorporated by reference in its entirety) was used as a specific assay to evaluate compounds against the following for the following Ras Superfamily proteins: KRas wild type, KRas Q61H mutant, KRas G12C mutant, KRas G12D mutant, Rac-1, and Rho-A.
(§2) Buffer-I: • 25 mM Tris-HCl, pH 7.4 • 27 mM KCl • 137 mM NaCl • 1 mM MgCl2 • 1 mM DTT
(§3) Buffer-II: • 50 mM Tris-HCl, pH 7.0 • 1 mM MgCl2 • 1 mM DTT
(§4) The small GTPases proteins: KRas wild type. KRas Q61H mutant, KRas G12C mutant, KRas G12D mutants, Rac-1, and Rho-A were expressed as His-tagged proteins. In addition, the Guanosine nucleotide Exchange Factor (GEF) Sos protein (residues 556-1049) was expressed as a His-tagged protein. In cells, the guanine nucleotide exchange factor Sos protein promotes activation of Ras proteins by stimulating an exchange of GDP for GTP. The inclusion of Sos to the Ras GTP binding domain inhibition assay may be considered as an alternative representation of physiological cellular conditions for evaluating the inhibitory activity of some of the tested small molecules.
(§5) For the assay, all purified small GTPases proteins were diluted in Buffer-I or Buffer-II to a final concentration of 10-30 μg/mL. 200 μL of each diluted protein was added to a nickel-coated 96-well plate and incubated overnight at 4° C. Then the protein solution was discarded and 200 μL of Buffer-I or Buffer-II was added to each well in the presence of 1% DMSO. Compounds to be tested were added to the protein-coated wells at final concentration of 20 μM, and incubated for 3 hours at room temperature with and without 10-30 μg/mL of Sos added to the final hour of the incubation. When performing IC50 measurements a serial dilution of all tested concentrations was added. Then Cy3-GTP or Cy5-GTP was added to each well to a final concentration of 100 nM. The labeled GTP was incubated for 45 minutes at room temperature. Following GTP incubation, wells were washed 3× in Buffer-I or Buffer-II and 200 μL of Buffer-I or Buffer-II was added to each well. Following washes, the amount of bound labeled-GTP was measured using a SpectraMax M3 (Molecular Devices).

In a further assay the target is KRas G12C mutant (Homo sapiens (Human), UniProt P01116, G12C). The assay can be described thus: Ras GTP Binding Domain Inhibition Assay, KRas G12C mutant. Here is the method:
as §1, §2, §3, §4, §5

The target of another assay is Rac-1 (Homo sapiens (Human), UniProt P63000). Kind of assay: Ras GTP Binding Domain Inhibition Assay, Rac-1. The protocol:
as §1, §2, §3, §4, §5

The next assay deals with Rho-A (Homo sapiens (Human), UniProt P61586). Kind of assay: Ras GTP Binding Domain Inhibition Assay, Rho-A. The protocol:
as §1, §2, §3, §4, §5

The mark [1] stands for this setting: + SOS, read-out: KRas wild type + SOS: % inh.
Where [2] appears, read: without SOS, read-out: KRas wild type: % inh.
Setting [3] is: + SOS, read-out: KRas G12C mutant + SOS: % inh.
The mark [4] stands for this setting: without SOS, read-out: KRas G12C mutant: % inh.
Setting [5] is: without SOS, read-out: Rac-1: % inh.
Setting [6] is: without SOS, read-out: Rho-A: % inh.
[7] abbreviates: + SOS, read-out: Rac-1 + SOS: % inh.
Where [8] appears, read: + SOS, read-out: Rho-A + SOS: % inh.

Sequence of KRas G12C mutant (P01116 other isoform, or with tags, fused parts or gaps G12C): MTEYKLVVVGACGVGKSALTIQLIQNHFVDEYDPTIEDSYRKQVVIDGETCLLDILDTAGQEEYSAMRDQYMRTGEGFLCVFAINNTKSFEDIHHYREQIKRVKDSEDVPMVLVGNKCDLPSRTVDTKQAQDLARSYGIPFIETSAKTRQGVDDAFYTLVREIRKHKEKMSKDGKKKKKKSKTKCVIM
Sequence of Rho-A (P61586 whole entry, species assumed, the tested form may be a part): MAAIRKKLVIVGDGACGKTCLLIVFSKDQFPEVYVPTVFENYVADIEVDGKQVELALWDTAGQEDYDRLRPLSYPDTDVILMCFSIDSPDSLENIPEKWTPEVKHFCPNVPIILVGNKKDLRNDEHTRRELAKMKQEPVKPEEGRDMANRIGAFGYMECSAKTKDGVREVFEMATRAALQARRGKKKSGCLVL
Sequence of KRas wild type (P01116 other isoform, or with tags, fused parts or gaps): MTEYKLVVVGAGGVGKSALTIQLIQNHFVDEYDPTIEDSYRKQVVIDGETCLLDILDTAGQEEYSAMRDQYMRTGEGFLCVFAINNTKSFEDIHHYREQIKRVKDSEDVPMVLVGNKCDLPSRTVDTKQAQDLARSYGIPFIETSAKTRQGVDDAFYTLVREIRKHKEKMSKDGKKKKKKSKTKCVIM

For the compound `COc1cc(-c2sc3nc(-c4nccn4C)nc(N[C@@H]4CC[C@@H](OC)C4)c3c2-c2ccccc2)ccn1` (racemic) [Compound 47, N-((1R,3R)-3-Methoxycyclopentyl)-6-(2-methoxypyridin-4-yl)-2-(1-methyl-1H-imidazol-2-yl)-5-phenylthieno[2,3-d]pyrimidin-4-amine], the “Activation of JNK in PANC-1” value in the assay on JNK is “Y”. The inhibition at 20 µM at KRas wild type (setting [1]) was 76 to 100%; at KRas wild type (setting [2]), 76 to 100%; at KRas G12C mutant (setting [3]), 76 to 100%; at KRas G12C mutant (setting [4]), 46 to 75%; on Rac-1 (setting [5]) it was 46 to 75%; on Rho-A (setting [6]) it was 46 to 75%.

For the compound `CO[C@@H]1CC[C@H](Nc2nc(-c3nccn3C)nc3sc(-c4ccn(C(C)C)n4)c(-c4ccccc4)c23)C1` (single isomer, unassigned) [Compound 11], the “Activation of JNK in PANC-1” value in the assay with JNK is “Y”. The inhibition at 20 µM was 76 to 100% at KRas wild type (setting [1]); 46 to 75% on KRas wild type (setting [2]); 76 to 100% at KRas G12C mutant (setting [3]); 46 to 75% at KRas G12C mutant (setting [4]); 26 to 45% at Rac-1 (setting [7]); 1 to 25% on Rac-1 (setting [5]). In addition, the inhibition at 20 µM on Rho-A (setting [8]) and at Rho-A (setting [6]) was 26 to 45% in each case.

In the case of `COCCNc1nc(-c2nccn2C)nc2sc(-c3ccccc3)c(-c3ccccc3)c12` [Compound 1, N-(2-Methoxyethyl)-2-(1-methyl-1H-imidazol-2-yl)-5,6-diphenylthieno[2,3-d]pyrimidin-4-amine], the “Activation of JNK in PANC-1” value with JNK was “Y”. For the same compound, the inhibition at 20 µM at KRas wild type (setting [1]) was in the range of 1 to 25%; at KRas wild type (setting [2]), 1 to 25%; at KRas G12C mutant (setting [4]) it was 46 to 75%; at Rac-1 (setting [5]), 76 to 100%; at Rho-A (setting [6]), 46 to 75%.

Consider `COCCN(C)c1nc(-c2nccn2C)nc2sc(-c3ccccc3)c(-c3ccccc3)c12` [Compound 2, N-(2-Methoxyethyl)-N-methyl-2-(1-methyl-1H-imidazol-2-yl)-5,6-diphenylthieno[2,3-d]pyrimidin-4-amine], for which the “Activation of JNK in PANC-1” value in the assay on JNK was “Y”. Also, the inhibition at 20 µM at KRas wild type (setting [2]) lay within 46 to 75%; on KRas G12C mutant (setting [4]) it was 26 to 45%; on Rac-1 (setting [5]) it was 26 to 45%; on Rho-A (setting [6]), 26 to 45%.

For the compound `COCCCNc1nc(-c2nccn2C)nc2sc(-c3ccccc3)c(-c3ccccc3)c12` [Compound 3, N-(3-Methoxypropyl)-2-(1-methyl-1H-imidazol-2-yl)-5,6-diphenylthieno[2,3-d]pyrimidin-4-amine], in the assay on JNK, the “Activation of JNK in PANC-1” value is “Y”. Besides, the inhibition at 20 µM at KRas wild type (setting [1]) lay within 1 to 25%; on KRas wild type (setting [2]), 46 to 75%; on KRas G12C mutant (setting [4]), 46 to 75%; on Rac-1 (setting [5]), 46 to 75%; on Rho-A (setting [6]) it was 46 to 75%.

Take `COCCNc1nc(-c2nccn2C)nc2sc(-c3ccccc3)c(-c3ccccc3Cl)c12` [Compound 4, 5-(2-Chlorophenyl)-N-(2-methoxyethyl)-2-(1-methyl-1H-imidazol-2-yl)-6-phenylthieno[2,3-d]pyrimidin-4-amine]: the “Activation of JNK in PANC-1” value with JNK was “Y”. Further, the inhibition at 20 µM lay in the range of 1 to 25% at KRas wild type (setting [2]), 26 to 45% at KRas G12C mutant (setting [4]), 26 to 45% at Rac-1 (setting [5]) and 26 to 45% on Rho-A (setting [6]).

`COC1CCN(c2nc(-c3nccn3C)nc3sc(-c4ccn(C)n4)c(-c4ccccc4)c23)CC1` [Compound 6, 4-(4-Methoxypiperidin-1-yl)-2-(1-methyl-1H-imidazol-2-yl)-6-(1-methyl-1H-pyrazol-3-yl)-5-phenylthieno[2,3-d]pyrimidine]: the “Activation of JNK in PANC-1” value with JNK is reported as “Y”. Further, the inhibition at 20 µM on KRas wild type (setting [1]) was 26 to 45%; at KRas wild type (setting [2]), 0%; on KRas G12C mutant (setting [3]), 46 to 75%; on KRas G12C mutant (setting [4]), 26 to 45%; on Rac-1 (setting [7]) it was 26 to 45%; at Rac-1 (setting [5]) it was 26 to 45%. Further, the inhibition at 20 µM at Rho-A (setting [8]) and at Rho-A (setting [6]) was 0% in each case.
